Results from patent US9260473B2, “Bivalent multifunctional ligands targeting Aβ oligomers as treatment for Alzheimer's disease” (Virginia Commonwealth University, priority 2010, dated 2016).

How the values were obtained:
[1] = test system: MC65 cells; experiment: Cytotoxicity assay in MC65 cells (MTS, +TC/−TC); format: cell-based, human; conditions: 72 hrs
Text: Protective effects of 14 on AβOs-induced cytotoxicity in MC65 cells and differentiated human neuroblastoma SH-SY5Y cells. […] To further verify whether 14 can protect cells from extracellular AβOs-induced cytotoxicity, all trans-retinoic acid differentiated human SH-SY5Y cells were employed. […] This may further indicate that while both 1 and 14 can bind to AβOs, CM/LR anchorage of 14 can increase its accessibility to intracellular target AβOs. Since CM/LR are crucial for many aspects of cell signaling and functions, 14 was further evaluated for its potential cytotoxicity in mouse spleen and natural killer (NK) cells.
Cytotoxicity assay in MC65 cells. MC65 cells were seeded in 96-well plates (4×10^4 cells/well) at 37° C., 5% CO2 for 24 hrs. The medium was removed and washed with PBS twice. Opti-MEM and test compounds were added under +TC and −TC conditions. The plates were incubated at 37° C., 5% CO2 for 72 hrs, then 20 uL CellTiter 96 AQueous One Solution (Promega, Madison, Wis.) were added to each well and the plates were incubated at 37° C., 5% CO2 for 2-4 hrs. The plates were read at 490 nm using FlexStation III plate reader (Molecular Devices). The blank with only test compounds in Opti-MEM was set up as background control for all of the tested concentrations. Each data point was averaged from six replicates and the experiments were independently repeated at least three times.

[2] = molecular target: bovine serum albumin (BSA) (Bos taurus, UniProt P02769); experiment: Fluorescence polarization binding to BSA; conditions: read-out: binding affinity to BSA (Kd)
bovine serum albumin (BSA), sequence (P02769 25-607): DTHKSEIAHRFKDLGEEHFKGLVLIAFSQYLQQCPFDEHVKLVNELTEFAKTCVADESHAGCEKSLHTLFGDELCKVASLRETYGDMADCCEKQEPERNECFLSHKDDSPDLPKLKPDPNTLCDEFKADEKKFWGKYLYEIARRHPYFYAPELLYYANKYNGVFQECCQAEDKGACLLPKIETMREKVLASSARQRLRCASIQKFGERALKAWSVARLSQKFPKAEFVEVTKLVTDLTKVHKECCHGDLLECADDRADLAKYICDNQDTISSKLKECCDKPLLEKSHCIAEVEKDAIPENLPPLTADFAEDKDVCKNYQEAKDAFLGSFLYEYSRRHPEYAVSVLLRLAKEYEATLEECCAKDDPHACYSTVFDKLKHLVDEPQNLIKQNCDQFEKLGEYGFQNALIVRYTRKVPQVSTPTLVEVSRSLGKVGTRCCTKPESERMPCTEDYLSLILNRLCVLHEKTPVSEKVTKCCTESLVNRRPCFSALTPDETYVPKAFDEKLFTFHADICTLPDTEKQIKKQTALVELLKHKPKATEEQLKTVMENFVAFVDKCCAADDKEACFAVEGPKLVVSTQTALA
Experimental: (§1) FIG. 8A-C. BMAOI 14 binds to Aβ42 monomers, oligomers, and fibrils, but not BSA. A. The monomers, oligomers and fibrils of Aβ42 were prepared according to established protocols and confirmed by TEM; B. Compound 14 (1 μM) was incubated with different forms of Aβ42 at indicated concentrations for 3 hrs. Then, fluorescence polarization change of 14 was recorded and the binding affinity was calculated; C. Compound 14 was incubated with BSA as described in B and the binding affinity was calculated.
(§2) To determine the binding affinity of 14 to Aβ, we evaluated changes in fluorescence polarization values of this probe at different 14:Aβ ratios for monomeric, oligomeric, and fibrillary Aβ species, respectively. Aβ42 is chosen to evaluate the binding of probe as it is the major and most sticky amyloid peptide found in AD plaques.^1 The formation of different Aβ42 species was confirmed by transmission electron microscope (TEM) as shown in FIG. 8A. […] It appears that 14 binds to Aβ42 with micromolar affinity and slightly favors […] fibrils over monomers and oligomers.

[3] = test system: extracellular AβOs; experiment: ML60 cell assay: ELISA for extracellular AβOs; format: cell-based, Chinese hamster; conditions: ML60 cells, 10 μM, 24 hrs
Experimental: Next, another cell line, ML60, was employed to evaluate the inhibition of AβOs production.
ML60 cell assay. Sandwich enzyme-linked immunoassays (ELISAs) for extracellular AβOs in ML60 cells were performed. ML60 cells (90% confluent) in 96-well plates were treated with test compounds (10 μM) at 37° C., 5% CO2 for 24 hrs. ML60 cells were centrifuged for 5 min at 6000 g, and supernatant media was collected for AβOs measurement by ELISA. The capture antibody 21F12 (to Aβ residues 33-42) was used for capturing both monomeric and oligomeric Aβ42 species. The detecting antibody was biotinylated 21F12B, and the combination of 21F12 and biotinylated 21F12B allows the detection of only AβOs. The 21F12 mAbs were coated at 10 mg/mL into 96-well immunoassay plates (Costar) at room temperature overnight. The plates were then aspirated and blocked with 0.25% human serum albumin in PBS buffer for 1 hr at room temperature. The plates were rehydrated with wash buffer (0.05% Tween 20 in TBS) before use. The samples were added to the plates and incubated at room temperature for 1 hr. The plates were washed 3× with wash buffer between each step of the assay. […] Reaction product was quantified using plate reader by measuring the difference in absorbance at 450 nm and 650 nm.

[4] = BBB permeability in B6C3F1 mice, brain tissue analysed by HPLC; format: in vivo
Experimental: FIG. 10. Compound 14 can cross the blood brain barrier (BBB) of B6C3F1 mice. Compound 14 (10 mg/kg) was given to B6C3F1 female mice (n=3) by i.v. administration through tail-vein. Then the animals were sacrificed at indicated time intervals and the brain tissues were collected and analyzed by HPLC using C18 column.
An appropriate fluorescent probe must cross the BBB and selectively bind to Aβ plaques. […] Here, we further assessed the BBB permeability of 14 using female B6C3F1 mice combined with HPLC analysis. […] The results may indicate that 14 can rapidly cross the BBB and reach the brain tissue and is metabolized in a reasonable time window (˜3 hrs) that allows clinical operation. 14 appears to violate all of the empirical rules of BBB permeability with a molecule weight >1000 Da and being more lipophilic (log P>3). However, we also realize that there are exceptions and that compounds with molecular weight more than 1000 Da can efficiently cross the BBB and reach brain tissue.

[5] = molecular target: T1, Aβ42 monomers (Homo sapiens, UniProt P05067); experiment: Fluorescence polarization binding to Aβ42 monomers; conditions: compound 1 μM, 3 hrs, read-out: apparent binding constant (Kd) for Aβ42 monomers
T1 construct: The monomers, oligomers and fibrils of Aβ42 were prepared according to established protocols and confirmed by TEM
T1 sequence (P05067 672-713 limits assumed): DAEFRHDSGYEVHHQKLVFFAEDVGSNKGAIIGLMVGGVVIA
Experimental: as §1, §2

[6] = molecular target: T2, Aβ42 fibrils (Homo sapiens, UniProt P05067); experiment: Fluorescence emission before and after mixing with Aβ42 fibrils; format: binding; conditions: compound 1 μM
T2 construct: The monomers, oligomers and fibrils of Aβ42 were prepared according to established protocols and confirmed by TEM
T2 sequence (P05067 672-713 limits assumed): as above
Experimental: FIG. 9. Fluorescence emission of 14 (1 μM) before and after mixing with Aβ42 fibrils.
To examine the change of fluorescence properties upon binding to Aβ42, we compared the fluorescence properties of free 14 in aqueous solution to its fluorescence properties in the presence of Aβ42 fibrils as this chemical probe will be used to detect Aβ plaques. […] A blue shift in the emission spectra of 10 nm was also observed upon association with Aβ42 fibrils.

[7] = test system: NK cells; experiment: IL-2 augmented natural killer (NK) cell activity; format: cell-based, B6C3F1 mice; conditions: 10 μM
Experimental: IL-2 augmented natural killer (NK) cell activity. […] Recombinant IL-2 (Chiron, Emeryville, Calif.) at a volume of 50 μL was added to each well so that the final concentration of IL-2 was 5000 fU/mL. The plates were cultured overnight in the presence of 1 or 14 (10 μM), and then assayed for NK cell activity using ^51Cr-labeled YAC-1 cells as the target cells. The ^51Cr-YAC-1 cells were added to each well of a 96-well plate to obtain E:T ratio of 50:1. […] Following 4 hrs incubation, the plates were centrifuged, and 0.1 mL of the supernatant was removed from each well and the radioactivity counted. The mean percentage of cytotoxicity was determined.

[8] = test system: AβOs; experiment: Immunocytochemistry assay of AβOs in MC65 cells (A11 antibody); format: cell-based, human; conditions: 10 μM, 24 hrs after removal of TC
Experimental: MC65 cells were treated with the indicated compounds (10 μM) immediately after the removal of TC. After 24 hrs, the cells were fixed and immunofluorescently stained for AβOs, CM/LR, and nucleus and imaged with a Leica TCS-SP2 AOBS confocal laser scanning microscope. Five areas were examined.
Immunocytochemistry assay. MC65 cells were plated onto Lab-Tee chamber slides (1×10^4 cells/well). After 24 hrs incubation at 37° C. and 5% CO2, Opti-MEM was added (with or without TC) and followed by test compounds. MC65 cells were incubated for 24 hrs. MC65 cells were rinsed 3× with PBS and incubated with Alexa 488-conjugated CTX-B (10 ug/mL) for 15 min on ice. After rinsing once with ice-cold PBS, cells were fixed for 30 min with 4% paraformaldehyde. MC65 cells were permeabilized for 30 min with 0.1% Triton X 100. Then MC65 cells were stained with A11 rabbit antibody followed by anti-rabbit Alexa 568 (1:500). Finally MC65 cells were treated with DAPI (5 ug/mL) and mounted with Vectashield Mounting Media. Cell fluorescence was analyzed by a Leica TCS-SP2 AOBS confocal laser scanning microscope equipped with blue diode, Argon, and 3 HeNe (lasers as well as a spectrophotometer based detection system with variable detector windows) using excitation lines at 355 nm, 488 nm, and 568 nm for DAPI, Alexa 488-conjugated CTX-B, and Alexa Fluor 568 donkey anti-rabbit IgG. […]

[9] = molecular target: T3, Aβ42 oligomers (Homo sapiens, UniProt P05067); experiment: Fluorescence polarization binding to Aβ42 oligomers; conditions: compound 1 μM, 3 hrs, read-out: apparent binding constant (Kd) for Aβ42 oligomers
T3 construct: The monomers, oligomers and fibrils of Aβ42 were prepared according to established protocols and confirmed by TEM
T3 sequence (P05067 672-713 limits assumed): as above
Experimental: as §1, §2

[10] = molecular target: T2, Aβ42 fibrils; experiment: Fluorescence polarization binding to Aβ42 fibrils; conditions: compound 1 μM, 3 hrs, read-out: apparent binding constant (Kd) for Aβ42 fibrils
Experimental: as §1, §2

COc1cc(C=CC(=O)C(Cc2cn(CCCCCCNC(=O)CCNC(=O)CCNC(=O)COC3CCC4(C)C(=CCC5C4CCC4(C)C(C(C)CCCC(C)C)CCC54)C3)nn2)C(=O)C=Cc2ccc(O)c(OC)c2)ccc1O (stereo not drawn) [BMAOI 14]
toxic effects on MC65 cell viability in the presence of TC ([1]; +TC, tested concentrations, MTS): no toxic effects | rescue of MC65 cell viability upon removal of TC ([1]; −TC, 16 μM): nearly full rescue | protective effects on MC65 cell viability upon removal of TC ([1]; −TC, MTS): protected MC65 cell survival in a dose-dependent manner | Kd [2]: ~120000 nM | production of extracellular AβOs (ELISA) [3]: inhibited the production of extracellular AβOs | time window until disappearance from brain tissue ([4]; 10 mg/kg i.v.): ~3 h | earliest time detected in brain tissue ([4]; 10 mg/kg i.v. tail-vein, female B6C3F1 mice): 10 min | duration of presence in brain tissue ([4]; 10 mg/kg i.v., evident at 60 and 120 minutes): more than two hours | Kd [5]: 2030 nM | increase of emission intensity upon binding to Aβ42 fibrils ([6]; Aβ42=5 μM, excitation 430 nm): 4.5 fold | blue shift in the emission spectra upon association with Aβ42 fibrils [6]: 10 nm | cytotoxic effects in NK cells [7]: no cytotoxic effects | formation of AβOs (A11 immunocytochemistry) [8]: significantly inhibited | Kd [9]: 2170 nM | Kd [10]: 830 nM
